Read-outs that look alike come from different tables or passages of the source.
Tests used:
Assay type in all cases: cell-based
[1] = system: Moloney-murine leukemia virus; test: Antivirus effect on Moloney-murine leukemia virus in SC-1 cells (method of Rowe et al), Table 1
Description: (§1) The antivirus effect of the compound of general formula [II']of the invention was ascertained according to the test method by Rowe et al (J. W. Virology 1970, 42, 1136).
(§2) Virus: Moloney-murine leukemia virus.

[2] = system: Rous sarcoma virus (RSV); test: Effect on Rous sarcoma virus (RSV): inhibition of transformation of chick embryo fibroblast, Table 2; conditions: 4TO7, RSV infected about 30 minutes, judged under microscope after 4 to 7 days, concentration at which transformation was inhibited, read-out: Antivirus effect (on RSV), Concentration
Procedure: EXAMPLE 2. EFFECT ON ROUS SARCOMA VIRUS (RSV) Employing cultured cells of the first generation (chick embryo fibroblast),RSV was infected for about 30 minutes. To this were added the samples diluted stepwise, and, after 4 to 7 days, which stage the transformation of cells due to RSV infection was inhibited at was judged under microscope.

[3] = system: HIV (human immunodeficiency virus); test: Effect on HIV: inhibition of transformation of MT-4 cells due to HIV infection, Table 3; conditions: Human immunodeficiency virus 1, MT4, 72 h, HIV infected 1 hour at 37° C, judged under microscope after 3 days, concentration at which transformation was inhibited, read-out: Antivirus effect (on HIV), Concentration
Procedure: EFFECT ON HIV (HUMAN IMMUNODEFICIENCY VIRUS)
(§3) Employing MT-4 cells, HIV was infected for 1 hour at 37° C. To this were added the samples diluted stepwise, and, after 3 days, which stage the transformation of cells due to HIV infection was inhibited at was judged under microscope.

[4] = system: Moloney-murine leukemia virus, RSV, HIV; test: Antivirus effect, summary of Table 1 through 3; conditions: as shown in Table 1 through 3
Procedure: as §1, §2
Employing cultured cells of the first generation (chick embryo fibroblast),RSV was infected for about 30 minutes. To this were added the samples diluted stepwise, and, after 4 to 7 days, which stage the transformation of cells due to RSV infection was inhibited at was judged under microscope.
as §3

[5] = Moloney-murine leukemia virus, SC-1 cells, read-out: ED50 (the source's name)

Row | SMILES | EC50 [1, 5] [µM] | minimal effective concentration [2] [µg/mL] | minimal effective concentration [3] [µg/mL] | antivirus effect compared with DDC [4] | EC50 ([1]; SC-1, read-out: ED50) [µM]
1 | O=c1[nH]c(=S)ccn1[C@H]1CC[C@@H](CO)O1 [Compound of invention, 2',3'-dideoxy-4-thio-uridine] | 3.7 | 5 to 10 | 10 | excellent antivirus effect similar to that of DDC | 
2 | Nc1ccn([C@H]2CC[C@@H](CO)O2)c(=O)n1 [DDC, 2',3Dideoxy-cytidine] | 4 | 0.5 to 1 | 1 |  | 
3 | Cc1cn([C@H]2C[C@H](N=[N+]=[N-])[C@@H](CO)O2)c(=O)[nH]c1=O [AZT, 3Azido-3deoxy-thymidine] |  |  |  |  | 0.02
